Biological target: T1, recombinant human Flag-tagged PARP7 (amino acids 456-657) (Homo sapiens, UniProt Q7Z3E1)
T1 construct: recombinant human Flag-tagged PARP7 (amino acids 456-657)
T1 sequence (Q7Z3E1 456-657): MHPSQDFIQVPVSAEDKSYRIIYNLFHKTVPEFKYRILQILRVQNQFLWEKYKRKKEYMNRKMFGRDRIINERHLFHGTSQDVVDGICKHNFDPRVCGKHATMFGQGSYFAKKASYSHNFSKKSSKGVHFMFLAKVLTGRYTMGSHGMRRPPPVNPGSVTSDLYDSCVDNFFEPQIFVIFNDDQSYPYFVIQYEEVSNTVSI
Assay: PARP7 biochemical DELFIA assay (auto-MARylation)
Settings: DELFIA readout, IC50 class
Method in brief: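 Readout is DELFIA time-resolved Eu fluorescence (Ex337 nm, Em620 nm) of biotin-ADP-ribose on immobilised Flag-tagged PARP7 456-657. Enzyme (12.5-37.5 nM as added) sat 30 min with compound before biotin-NAD+ (15 μM solution, pH 7.5 HEPES buffer) started 2-3 h room-temperature self-modification, stopped with excess NAD+.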

Compound	IC50
O=C(CCOCCc1cccc2c(=O)[nH]ncc12)N1CCN(c2ncccn2)CC1 [Compound 104]	100 to 1000 nM
O=C(CCOCCc1cccc2c(=O)[nH]ncc12)N1CCN(c2cnc(C(F)(F)F)cn2)CC1 [Compound 105]	≤ 100 nM
O=C(CCOCCc1cccc2c(=O)[nH]ncc12)N1CCN(c2ncc(C(F)(F)F)s2)CC1 [Compound 106]	≤ 100 nM
O=C(COCCc1cccc2c(=O)[nH]ncc12)NC1CCN(c2ncc(C(F)(F)F)cn2)CC1 [Compound 107]	≤ 100 nM
CN(C(=O)COCCc1cccc2c(=O)[nH]ncc12)C1CCN(c2ncc(C(F)(F)F)cn2)CC1 [Compound 108]	≤ 100 nM
CN(C(=O)COCCc1cccc2c(=O)[nH]ncc12)C1CN(c2ncc(C(F)(F)F)cn2)C1 [Compound 109]	1000 to 10000 nM
O=C(NCCOCc1cccc2c(=O)[nH]ncc12)C1CCN(c2ncc(C(F)(F)F)cn2)CC1 [Compound 110]	100 to 1000 nM
N#Cc1ccc(N2CCN(C(=O)CCOCCc3cc(C#N)cc4c(=O)[nH]ncc34)CC2)nc1 [Compound 111]	100 to 1000 nM
N#Cc1cc(CCOCCC(=O)N2CCN(c3ncc(C(F)(F)F)cn3)CC2)c2cn[nH]c(=O)c2c1 [Compound 112]	100 to 1000 nM
CS(=O)(=O)c1ccc(N2CCN(C(=O)CCOCCc3cccc4c(=O)[nH]ncc34)CC2)nc1 [Compound 113]	100 to 1000 nM
O=C(CCOCCc1cccc2c(=O)[nH]ncc12)N1CCN(c2ccc(OC(F)(F)F)cn2)CC1 [Compound 114]	≤ 100 nM
O=C(CCOCCc1cccc2c(=O)[nH]ncc12)N1CCC(c2ncc(Cl)cn2)CC1 [Compound 115]	100 to 1000 nM
N#Cc1ccc(OC2CCN(C(=O)CCOCCc3cccc4c(=O)[nH]ncc34)C2)nc1 (stereo not drawn) [Compound 116]	1000 to 10000 nM
O=C1NCCc2c(NCCOCC(=O)N3CCN(c4ncc(C(F)(F)F)cn4)CC3)cccc21 [Compound 117]	1000 to 10000 nM
O=C(CCOCCc1cccc2c(=O)[nH]ncc12)N1CCC(c2ccc(Cl)cn2)CC1 [Compound 118]	100 to 1000 nM
CC(COCCC(=O)N1CCN(c2ncc(C(F)(F)F)cn2)CC1)c1cc(F)cc2c(=O)[nH]ncc12 (stereo not drawn) [Compound 119]	1000 to 10000 nM
CC(COCCC(=O)N1CCN(c2ncc(C(F)(F)F)cn2)CC1)c1cc(F)cc2c(=O)[nH]ncc12 (stereo not drawn) [Compound 120]	≤ 100 nM
O=C1NC(=O)c2c(CCOCCC(=O)N3CCN(c4ncc(C(F)(F)F)cn4)CC3)cccc21 [Compound 121]	100 to 1000 nM
CC(OCCCC(=O)N1CCN(c2ncc(C(F)(F)F)cn2)CC1)c1cccc2c(=O)[nH]ncc12 (stereo not drawn) [Compound 123]	≤ 100 nM
O=C(CCCOCc1cccc2c(=O)[nH]ncc12)N1CCN(c2ncc(C(F)(F)F)cn2)CC1 [Compound 124]	≤ 100 nM
O=C(CCOCCn1c(CO)cc2c(=O)[nH]ncc21)N1CCN(c2ncc(C(F)(F)F)cn2)CC1 [Compound 125]	≤ 100 nM
CC1CCc2c(cn[nH]c2=O)N1CCOCCC(=O)N1CCN(c2ncc(C(F)(F)F)cn2)CC1 (stereo not drawn) [Compound 126]	100 to 1000 nM
Cc1nn(CCOCCC(=O)N2CCN(c3ncc(C(F)(F)F)cn3)CC2)c2cn[nH]c(=O)c12 [Compound 127]	≤ 100 nM

Continued, values first:

IC50	Compound
100 to 1000 nM	O=C1NCCn2c(CCOCCC(=O)N3CCN(c4ncc(C(F)(F)F)cn4)CC3)ccc21 [Compound 128]
≤ 100 nM	CC(OCCCC(=O)N1CCN(c2ncc(C(F)(F)F)cn2)CC1)c1cc(F)cc2c(=O)[nH]ncc12 (stereo not drawn) [Compound 129]
≤ 100 nM	O=C(CCOCCn1cc(C(F)(F)F)c2c(=O)[nH]ncc21)N1CCN(c2ncc(C(F)(F)F)cn2)CC1 [Compound 131, 1-(2-(3-oxo-3-(4-(5-(trifluoromethyl)pyrimidin-2-yl)piperazin-1-yl)propoxy)ethyl)-3-(trifluoromethyl)-1,5-dihydro-4H-pyrrolo[2,3-d]pyridazin-4-one]
≤ 100 nM	O=C(CCOCCn1ncc2c(=O)[nH]ncc21)N1CCN(c2ccc(C(F)(F)F)cn2)CC1 [Compound 132]
≤ 100 nM	O=C(CCOCCn1ncc2c(=O)[nH]ncc21)N1CCN(c2ccc(Cl)cn2)CC1 [Compound 133]
≤ 100 nM	Cc1cc(CCOCCC(=O)N2CCN(c3ncc(C(F)(F)F)cn3)CC2)n2c1C(=O)NCC2 [Compound 134]
100 to 1000 nM	COCc1cc2c(=O)[nH]ncc2n1CCOCCC(=O)N1CCN(c2ncc(C(F)(F)F)cn2)CC1 [Compound 135]
100 to 1000 nM	NCc1cc2c(=O)[nH]ncc2n1CCOCCC(=O)N1CCN(c2ncc(C(F)(F)F)cn2)CC1 [Compound 136]
≤ 100 nM	CC1CN(C(=O)CCOCCn2ncc3c(=O)[nH]ncc32)CCN1c1ncc(C(F)(F)F)cn1 (stereo not drawn) [Compound 137]
≤ 100 nM	CC1CN(C(=O)CCOCCn2ncc3c(=O)[nH]ncc32)CCN1c1ncc(C(F)(F)F)cn1 (stereo not drawn) [Compound 138]
≤ 100 nM	O=C(CCOCCc1cccc2c(=O)[nH]ncc12)N1CCC(c2nc3ccccc3o2)CC1 [Compound 139]
≤ 100 nM	O=C(CCOCCc1cccc2c(=O)[nH]ncc12)N1CCC(c2nc3ccccc3s2)CC1 [Compound 140]
≤ 100 nM	O=C(CCOCCc1cccc2c(=O)[nH]ncc12)N1CCN(c2nc3ccccc3s2)CC1 [Compound 141]
≤ 100 nM	CC1CN(c2ncc(C(F)(F)F)cn2)CCN1C(=O)CCOCCn1ncc2c(=O)[nH]ncc21 (stereo not drawn) [Compound 142]
≤ 100 nM	CC1CN(c2ncc(C(F)(F)F)cn2)CCN1C(=O)CCOCCn1ncc2c(=O)[nH]ncc21 (stereo not drawn) [Compound 143]
≤ 100 nM	O=C(CCOCCc1csc2c(=O)[nH]c(=O)[nH]c12)N1CCN(c2ncc(C(F)(F)F)cn2)CC1 [Compound 144]
1000 to 10000 nM	O=C1NCCCc2c(CCOCCC(=O)N3CCN(c4ncc(C(F)(F)F)cn4)CC3)cccc21 [Compound 145]
≤ 100 nM	O=C(CCOCCc1cccc2c(=O)[nH]ncc12)N1CCN(c2nc3ccccc3o2)CC1 [Compound 146]
≤ 100 nM	O=C(CCOCCn1ncc2c(=O)[nH]ncc21)N1CCN(c2ncc(Cl)cn2)CC1 [Compound 147]
≤ 100 nM	O=C(CCOCCc1cccc2c(=O)[nH]ncc12)N1CCN(c2ncc(C(F)(F)F)cn2)C(CO)C1 (stereo not drawn) [Compound 148]
≤ 100 nM	CC(C)c1cn(CCOCCC(=O)N2CCN(c3ncc(C(F)(F)F)cn3)CC2)c2cn[nH]c(=O)c12 [Compound 150]
≤ 100 nM	Cc1cn(C(C)COCCC(=O)N2CCN(c3ncc(C(F)(F)F)cn3)CC2)c2cn[nH]c(=O)c12 (stereo not drawn) [Compound 152]
≤ 100 nM	O=C(CCOCCn1nc(C(F)(F)F)c2c(=O)[nH]ncc21)N1CCN(c2ncc(C(F)(F)F)cn2)CC1 [Compound 153, 1-(2-(3-oxo-3-(4-(5-(trifluoromethyl)pyrimidin-2-yl)piperazin-1-yl)propoxy)ethyl)-3-(trifluoromethyl)-1,5-dihydro-4H-pyrazolo[3,4-d]pyridazin-4-one]
≤ 100 nM	CC(C)c1nn(CCOCCC(=O)N2CCN(c3ncc(C(F)(F)F)cn3)CC2)c2cn[nH]c(=O)c12 [Compound 154]
≤ 100 nM	CC(COCCn1ncc2c(=O)[nH]ncc21)C(=O)N1CCN(c2ncc(C(F)(F)F)cn2)CC1 (stereo not drawn) [Compound 155]
100 to 1000 nM	CC(COCCn1ncc2c(=O)[nH]ncc21)C(=O)N1CCN(c2ncc(C(F)(F)F)cn2)CC1 (stereo not drawn) [Compound 156]
≤ 100 nM	O=C(CCOCCN1C(=O)CCc2c1cn[nH]c2=O)N1CCN(c2ncc(C(F)(F)F)cn2)CC1 [Compound 157]
≤ 100 nM	O=C(CCOCCc1ccc(F)c2c(=O)[nH]ncc12)N1CCN(c2ncc(C(F)(F)F)cn2)CC1 [Compound 158]

Source: patent publication US20240217968A1, “PHARMACEUTICAL COMPOUND” (DUKE STREET BIO LIMITED, priority 2021, published 2024)
